Assay results reported in ChEMBL document CHEMBL5724796, “Tm Shift (DSF) assay results for EUbOPEN Chemogenomics Library” (2024).
Residues, ends and D or L forms follow the SMILES beside them.

Experiments:
[1] = molecular target: T1, Peregrin (Homo sapiens) (UniProt P55201); settings: Compound concentration 20.0 uM
T1 sequence (whole entry): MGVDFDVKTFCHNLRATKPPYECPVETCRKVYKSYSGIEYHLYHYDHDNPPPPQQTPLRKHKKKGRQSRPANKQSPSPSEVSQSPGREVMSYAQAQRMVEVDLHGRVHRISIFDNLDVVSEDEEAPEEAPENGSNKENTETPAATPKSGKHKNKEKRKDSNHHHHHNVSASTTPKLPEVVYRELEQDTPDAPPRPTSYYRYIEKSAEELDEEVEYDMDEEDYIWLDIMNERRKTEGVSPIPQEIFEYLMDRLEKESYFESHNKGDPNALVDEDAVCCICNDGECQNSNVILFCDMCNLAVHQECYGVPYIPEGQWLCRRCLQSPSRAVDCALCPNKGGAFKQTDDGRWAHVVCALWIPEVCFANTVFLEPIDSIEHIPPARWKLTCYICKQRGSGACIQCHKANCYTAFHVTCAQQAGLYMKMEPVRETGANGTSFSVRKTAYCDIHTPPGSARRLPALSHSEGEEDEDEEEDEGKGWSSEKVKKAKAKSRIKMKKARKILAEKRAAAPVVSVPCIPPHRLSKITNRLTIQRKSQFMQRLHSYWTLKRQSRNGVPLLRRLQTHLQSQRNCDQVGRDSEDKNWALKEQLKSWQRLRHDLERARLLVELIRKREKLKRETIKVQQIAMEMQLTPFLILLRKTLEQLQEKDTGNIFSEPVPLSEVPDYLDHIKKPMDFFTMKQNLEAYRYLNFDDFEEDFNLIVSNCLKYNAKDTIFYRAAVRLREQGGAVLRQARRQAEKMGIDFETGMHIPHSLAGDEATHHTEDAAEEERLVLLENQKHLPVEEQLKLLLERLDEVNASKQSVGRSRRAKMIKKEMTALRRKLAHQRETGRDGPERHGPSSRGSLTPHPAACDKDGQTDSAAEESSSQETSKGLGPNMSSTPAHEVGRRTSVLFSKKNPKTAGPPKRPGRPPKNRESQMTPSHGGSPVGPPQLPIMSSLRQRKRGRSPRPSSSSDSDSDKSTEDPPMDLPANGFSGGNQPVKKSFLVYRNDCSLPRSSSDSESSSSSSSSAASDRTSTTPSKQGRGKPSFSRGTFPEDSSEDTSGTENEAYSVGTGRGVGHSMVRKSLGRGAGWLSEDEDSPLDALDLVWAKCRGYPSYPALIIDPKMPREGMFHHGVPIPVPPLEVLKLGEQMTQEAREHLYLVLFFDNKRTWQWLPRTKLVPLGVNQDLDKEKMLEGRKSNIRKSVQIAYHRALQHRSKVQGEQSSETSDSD

[2] = molecular target: Fibroblast growth factor receptor 2 (Homo sapiens) (UniProt P21802); settings: Compound concentration 20.0 uM
Sequence of Fibroblast growth factor receptor 2 (Homo sapiens) (P21802 22-821 limits assumed): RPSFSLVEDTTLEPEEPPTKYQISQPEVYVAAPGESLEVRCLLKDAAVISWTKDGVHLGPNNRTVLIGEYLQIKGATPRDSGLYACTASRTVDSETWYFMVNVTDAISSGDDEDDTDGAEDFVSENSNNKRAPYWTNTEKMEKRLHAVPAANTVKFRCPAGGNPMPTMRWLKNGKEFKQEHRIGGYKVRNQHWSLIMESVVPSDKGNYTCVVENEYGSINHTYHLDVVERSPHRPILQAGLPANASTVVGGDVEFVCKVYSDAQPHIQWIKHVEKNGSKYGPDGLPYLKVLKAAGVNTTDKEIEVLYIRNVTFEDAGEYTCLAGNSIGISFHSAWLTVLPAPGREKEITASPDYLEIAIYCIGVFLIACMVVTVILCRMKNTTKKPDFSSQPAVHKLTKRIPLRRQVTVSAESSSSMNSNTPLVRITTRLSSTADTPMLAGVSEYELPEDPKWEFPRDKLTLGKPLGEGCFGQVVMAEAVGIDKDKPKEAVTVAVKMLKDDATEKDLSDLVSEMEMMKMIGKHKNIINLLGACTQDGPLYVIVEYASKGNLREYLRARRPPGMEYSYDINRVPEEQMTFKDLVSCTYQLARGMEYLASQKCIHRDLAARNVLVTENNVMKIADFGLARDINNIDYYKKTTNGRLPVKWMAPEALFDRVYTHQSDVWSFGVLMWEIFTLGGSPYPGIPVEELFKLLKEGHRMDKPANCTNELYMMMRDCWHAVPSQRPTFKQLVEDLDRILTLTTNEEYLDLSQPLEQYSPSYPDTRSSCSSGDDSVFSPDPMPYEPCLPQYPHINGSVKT
Description: Thermal Shift Assay. Domain: start/stop: T457-E768

Compound	ΔTm [1]	ΔTm [2]
Nc1cc2c3c(c1)C(c1ccccc1)=N[C@@H](NC(=O)c1cccnc1)C(=O)N3CC2	0.71 °C	0.08 °C
CCN(CC)S(=O)(=O)c1cc(Nc2nccc(-c3ccnc(-c4ccc(NC(=O)NC)cc4)c3)n2)ccc1Cl	-7.45 °C	-4.8 °C
C[C@@H](Oc1ccc(CNC(=O)c2cccnc2Oc2ccc3c(c2)OCO3)c(F)c1)C(=O)O	3.08 °C	0.14 °C
CSCC[C@H](NC(=O)[C@H](CC(=O)O)NC(C)=O)C(=O)N[C@@H](CCC(N)=O)C(=O)N[C@H](C=O)CC(=O)O (Ac-DMQD-aldehyde)	-1.78 °C	0.77 °C
COC[C@H](NC(=O)c1ccn(S(C)(=O)=O)c1)C(=O)Nc1nc(-c2cccc(-c3ccn(C)n3)c2)cs1	-0.52 °C	0.09 °C
COc1ccc(-n2c(SCCCN3C(=O)c4cccc5cccc(c45)C3=O)nnc2-c2ccncc2)cc1	0.39 °C	0.21 °C
Cn1cc(-c2ccncc2)c(-c2ccc(OCc3ccc4ccccc4n3)cc2)n1	0.25 °C	0.48 °C
COc1ccc(CC[C@H]2CCC[C@@H](CCc3ccc(OC)cc3)N2C[C@@H](O)CO)cc1	0.69 °C	-0.53 °C
Nc1ncnc2c1ncn2[C@@H]1O[C@H](C[C@@H](N)CC[C@H](N)C(=O)O)[C@@H](O)[C@H]1O	-1.27 °C	-1.33 °C
Cc1cc(/N=N/c2ccc(S(=O)(=O)Nc3ccccn3)cc2)c(N)cc1O	5.09 °C	0.17 °C
CC(C)NCC(O)COC(Cn1c2ccccc2c2ccccc21)Cn1c2ccccc2c2ccccc21 (stereo not given)	-1.15 °C	0.48 °C
COc1ccc2nc3[nH]nc(C)c3c(NCCOCCO)c2c1	-1.14 °C	0.8 °C
Cc1ccc(C)c(-n2sc3cc(F)ccc3c2=O)c1	-11.8 °C	-0.26 °C
C[C@H]1CCCN1Cc1nc2cc(NC(=O)c3ccc4c(cnn4C)c3)ccc2[nH]1	-1.47 °C	0.51 °C
CC(C)=C[C@H]1C[C@H](C)[C@]2(CC[C@]3(C)C[C@H]4[C@H](C(=O)C[C@@]4(C)O)/C(C=O)=C\C[C@H]32)O1	-0.47 °C	0.16 °C
CC(C)Oc1ccc(C=O)cc1	-0.07 °C	0.13 °C
CC(C)(C)OC(=O)Nc1ccc(-c2cc(C(=O)NCCCCCCC(=O)NO)no2)cc1	0 °C	-3.33 °C
Cc1nc(N)c2nnn(C[C@H]3CN(Cc4nccs4)CCO3)c2n1	0.82 °C	-0.39 °C
O=C(NCCCOc1ccc2[nH]c(=O)ccc2c1)N(C1CC1)[C@@H]1CCCC[C@H]1O	1.1 °C	0.24 °C
O=C(O)C1CCCN(CCC=C(c2ccccc2)c2ccccc2)C1 (stereo not given)	0.59 °C	0.41 °C
C[C@H](Nc1cc(Cl)nc2c1cnn2[C@@H]1O[C@H](COP(=O)(O)CP(=O)(O)O)[C@@H](O)[C@H]1O)c1ccccc1F	-1.02 °C	0.2 °C
CCC(CC)N(CCN(C)C(=O)CCC(=O)O)Cc1cccc(C(=O)Nc2sc3c(c2C(=O)c2cnn(-c4ccc(Cl)c(C(F)(F)F)c4)c2)CCC(C)(C)C3)c1	-1.97 °C	-2.12 °C
O=C(NCC1(c2nc(-c3ccccc3)cs2)CCOCC1)c1cccc(-c2noc(C(F)(F)F)n2)c1	-4.49 °C	-0.34 °C
CCCCCn1c(C)c(C(=O)c2cccc3ccccc23)c2ccccc21	2.08 °C	0.39 °C
CCCC1O[C@@H]2C[C@H]3[C@@H]4CCC5=CC(=O)C=C[C@]5(C)[C@H]4[C@@H](O)C[C@]3(C)[C@]2(C(=O)CO)O1 (stereo not given in full)	-1.04 °C	-0.77 °C
COc1cc2c(NC3CCN(C)CC3)cc(-c3ccc(C)o3)nc2cc1OCCCN1CCCC1	-0.96 °C	0.85 °C
C=CCO/N=C1\c2ccccc2-c2nc(C#N)c(C#N)nc21	2.37 °C	0.66 °C
COCc1nc(C(F)(F)F)[nH]c1-c1cc(C(=O)N2CC(c3ccc(C#N)cc3)C2)c(C)cc1C	1.19 °C	0.03 °C
CC(=O)O[C@]1(C(C)=O)CC[C@H]2[C@@H]3CCC4=CC(=O)CCC4=C3[C@@H](c3ccc(N(C)C)cc3)C[C@@]21C	-2.65 °C	-0.06 °C
N[C@@H](CCNCc1ccc(Cl)cc1)C(=O)N1CCCCC1	0.85 °C	-0.56 °C
